The source of these data is patent publication US20220017468A1, “ISOQUINOLINE COMPOUNDS AND THEIR USE IN TREATING AhR IMBALANCE” (Dermavant Sciences GmbH, priority 2020, published 2022).

The target in one data set is T1, AhR (Homo sapiens, UniProt P35869).
T1 construct: LS-180 cells stably transfected with a CYP1A1 promoter-linked beta-lactamase gene reporter construct; endogenous in cells; host or cells: CYP1A1-bla LS-180 cells
T1 sequence (P35869 11-848): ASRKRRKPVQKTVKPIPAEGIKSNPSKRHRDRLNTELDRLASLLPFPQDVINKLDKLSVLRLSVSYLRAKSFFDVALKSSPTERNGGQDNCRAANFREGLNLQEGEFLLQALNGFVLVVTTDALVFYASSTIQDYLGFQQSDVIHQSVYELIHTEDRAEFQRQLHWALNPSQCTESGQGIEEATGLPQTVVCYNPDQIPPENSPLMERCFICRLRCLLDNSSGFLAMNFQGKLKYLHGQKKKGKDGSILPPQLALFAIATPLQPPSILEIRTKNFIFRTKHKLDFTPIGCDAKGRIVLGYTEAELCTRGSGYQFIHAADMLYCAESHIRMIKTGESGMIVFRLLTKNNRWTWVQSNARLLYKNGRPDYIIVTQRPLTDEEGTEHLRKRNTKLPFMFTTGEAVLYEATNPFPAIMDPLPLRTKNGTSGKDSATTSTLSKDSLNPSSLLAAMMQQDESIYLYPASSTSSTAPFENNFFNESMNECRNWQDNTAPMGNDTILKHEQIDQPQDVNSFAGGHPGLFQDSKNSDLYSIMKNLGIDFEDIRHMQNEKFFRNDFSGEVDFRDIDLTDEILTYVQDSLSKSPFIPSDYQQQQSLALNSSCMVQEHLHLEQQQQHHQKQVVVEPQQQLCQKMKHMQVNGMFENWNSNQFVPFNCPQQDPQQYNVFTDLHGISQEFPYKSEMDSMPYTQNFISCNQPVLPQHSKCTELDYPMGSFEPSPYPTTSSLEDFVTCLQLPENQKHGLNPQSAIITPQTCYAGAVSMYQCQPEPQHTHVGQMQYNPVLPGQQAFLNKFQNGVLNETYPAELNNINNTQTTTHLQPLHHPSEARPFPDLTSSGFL
The data set is described as follows: CYP1A1-bla LS-180 AhR antagonist assay. It counts as cell-based. Conditions: competition of FICZ- or TCDD-induced AhR activation. The method, then:
A similar assay was used to evaluate the antagonist capacity of compounds. CYP1A1-bla LS-180 cells in exponential growth phase were washed twice with DPBS then seeded into 96-well microplates (50,000 cells/well) and allowed to adhere. Either FICZ or TCDD was added as an agonist and prepared compounds (2× working concentrations in complete media) were added 2 hours later. Cells were incubated for ˜20 hrs, after which compounds were tested for their ability to compete FICZ- or TCDD-induced AhR activation as a means to evaluate potential allosteric or partial agonist activity. The LiveBLAzer FRET B/G β-lactamase substrate was added in the final hour of incubation and resulting blue/green fluorescence was measured using a 96-well microplate reader, as described above.

A further data set relates to IL17A mRNA. The data set can be described thus: sRICA ex vivo human skin explant, IL17A expression. It is filed as cell-based. The settings on record: 10 μM, Th17 polarizing conditions. The text has this: A liquid-air interface skin explant culture with the in situ activation of immunocompetent cells, termed sRICA for skin-Resident Immune Cell Activation model was previously reported (Smith et al., (2016) PLoS One, 11(2)). In this assay, specific cytokine profiles of inflammatory skin diseases can be induced, including the Th17-type cytokines, IL17A, IL17F and IL22. Reduction of biomarkers in this assay indicates biological activity of the test compound.
Ex vivo human skin obtained from abdominoplasty surgery was processed to remove fat and dermatomed the tissue to ˜750 microns. Dermatomed skin was then cleaned in two serial rinses of 5-10 minutes each in room temperature PBS containing an antibiotic/antimycotic solution.
Skin was treated as asceptic from this point on; all further manipulations were performed in a class II biosafety cabinet. […]
The harvested skin tissue were stored in RNAlater until use. […] RNA was diluted to a concentration of 23.6 ng/ul (total of 100 ng RNA), and was used as template in a 10 uL PCR volume using Applied Biosciences RNA-to-CT 1 Step kit (AB Catalog # 4392938) and the specific TaqMan probes foreach gene to be quantified. […]
RNA levels of gene of interest's Relative Expression was calculated using the Delta Delta CT formula.
RNA was isolated from the tissue harvested at 24 hr and 48 hr post stimulation and gene expression was assessed by quantitative PCR. […]

With `CC(C)c1c(O)cc(-c2cc3ccccc3cn2)cc1O`, the “AhR antagonist assay result” value on AhR is given as “negative”. Moreover, in the data set on IL17A mRNA, the “inhibition of IL17A message expression” value is roughly 45%.
